The record followed here is PubChem BioAssay (NCI).

Test systems include COLO 205 colon; U251 CNS; 786-0 renal; HT29 colon; HL-60(TB) leukemia; HCC-2998 colon; CAKI-1 renal; MOLT-4 leukemia; SK-MEL-2 melanoma.
Holding throughout (assay): NCI anticancer screen, dose series, 48 h

Values joined by “and” are separate entries in the source; they are usually repeats but may differ in a detail not shown here. Equal entries are not always repeated.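 1) Cells in 96-well plates. 2) Compound, 48 h, 5 concentrations. 3) Linear interpolation between surrounding doses. 4) Unreached endpoint = highest concentration. GI50: concentration for 50% inhibition of growth. The concentration for full growth arrest is given as TGI.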

In the case of `O=C1CCC(=O)C12CCc1cccc(O)c12`, the TGI in the experiment with COLO 205 colon, in the experiment with U251 CNS, with 786-0 renal, in the experiment with HT29 colon, in the experiment on HL-60(TB) leukemia and with HCC-2998 colon was over 100 µM each time. Besides, the TGI in the experiment with CAKI-1 renal was over 100 µM.
Consider `CC1=N/C(=C\c2ccc([N+](=O)[O-])cc2)C(=O)O1`, for which the TGI in the experiment on COLO 205 colon, in the experiment on U251 CNS, in the experiment with 786-0 renal, with MOLT-4 leukemia, in the experiment with SK-MEL-2 melanoma and in the experiment with HT29 colon was over 100 µM in each case. For the same compound, the TGI in the experiment with HL-60(TB) leukemia and in the experiment with HCC-2998 colon was over 100 µM each time.
On to `COc1ccc(/C=C/C(C(=O)O)C(=O)O)cc1`, for which the TGI with COLO 205 colon is over 100 µM; in the experiment with U251 CNS, over 100 µM; with 786-0 renal it was over 100 µM; in the experiment with MOLT-4 leukemia it was 84.8 µM; with SK-MEL-2 melanoma, over 100 µM; in the experiment on HT29 colon, over 100 µM. For the same compound, the TGI in the experiment on HL-60(TB) leukemia was 74.7 µM; in the experiment with HCC-2998 colon, over 100 µM; with CAKI-1 renal, over 100 µM.
With `CC(C)(C)C(=O)OCC(COC(=O)C(C)(C)C)[N+](=O)[O-]`, the TGI with COLO 205 colon, in the experiment with U251 CNS, with 786-0 renal, in the experiment on MOLT-4 leukemia, with SK-MEL-2 melanoma and in the experiment on HT29 colon was over 100 µM throughout. The TGI in the experiment with HL-60(TB) leukemia was 79.8 µM; in the experiment on HCC-2998 colon it was over 100 µM; with CAKI-1 renal, over 100 µM.
For `O=c1c2cccnc2ncn1CCCN1CCOCC1`, the TGI with COLO 205 colon, in the experiment with U251 CNS, in the experiment with 786-0 renal, in the experiment on HT29 colon, in the experiment on HCC-2998 colon and in the experiment with CAKI-1 renal was over 100 µM in each case.
Consider `CCOC(=O)C1(C(=O)OCC)CC=C(C)CC12C(=O)Nc1ccccc12` (configuration not stated), for which the TGI in the experiment with COLO 205 colon, in the experiment on U251 CNS, in the experiment with 786-0 renal, in the experiment on MOLT-4 leukemia, with SK-MEL-2 melanoma and in the experiment with HT29 colon was over 100 µM throughout. The TGI in the experiment on HL-60(TB) leukemia, in the experiment on HCC-2998 colon and with CAKI-1 renal was over 100 µM throughout.
As to `CN(C)CCNC(=O)c1cccc2c1nc(-c1ccccn1)c1ccccc12`, the TGI in the experiment on COLO 205 colon was determined as 24.8 µM; with U251 CNS, 34.5 µM; with 786-0 renal, 43.7 µM; in the experiment with SK-MEL-2 melanoma, 34 µM; with HT29 colon it was 39.9 µM; in the experiment with HL-60(TB) leukemia, 34.8 µM. Besides, the TGI in the experiment with HCC-2998 colon came out at 32.4 µM; in the experiment on CAKI-1 renal, 61.9 µM.
With `N#Cc1nc(Nc2ccc([N+](=O)[O-])cc2)sc1N`, the TGI in the experiment with COLO 205 colon is over 100 µM; with U251 CNS, over 48.5 µM; in the experiment with 786-0 renal, over 100 µM; in the experiment with MOLT-4 leukemia, over 82 µM; with SK-MEL-2 melanoma, 53.2 µM; in the experiment with HT29 colon it was over 100 µM. Moreover, the TGI was over 29.8 µM with HL-60(TB) leukemia, 33.1 µM with HCC-2998 colon and 56.7 µM in the experiment with CAKI-1 renal.
Take `Cc1ccc([Se][Se]c2ccc(C)cc2)cc1`: the TGI is over 100 µM in the experiment on COLO 205 colon; 17.5 µM in the experiment with U251 CNS; 46.5 µM in the experiment with 786-0 renal; over 100 µM in the experiment on MOLT-4 leukemia; over 100 µM in the experiment on SK-MEL-2 melanoma; over 100 µM in the experiment on HT29 colon. For the same compound, the TGI with HL-60(TB) leukemia was 19.2 µM; in the experiment with HCC-2998 colon, over 100 µM; in the experiment on CAKI-1 renal, over 100 µM.
Turning to `COC(=O)C(=O)C(C#N)c1ccc(Cl)c(Cl)c1` (configuration not stated), the TGI with U251 CNS, in the experiment on 786-0 renal, in the experiment with MOLT-4 leukemia, with SK-MEL-2 melanoma, in the experiment on HT29 colon and in the experiment with HL-60(TB) leukemia was over 100 µM throughout. In the experiment on CAKI-1 renal, this compound displayed a TGI of over 100 µM.
Consider `CC1=C(c2cc(C(=O)Nc3cccc(C(F)(F)F)c3)nc(NC#N)n2)Sc2ccccc2N1`, for which the TGI with COLO 205 colon, in the experiment with U251 CNS, in the experiment with 786-0 renal, with MOLT-4 leukemia, with SK-MEL-2 melanoma and with HT29 colon was over 100 µM throughout. The TGI with HL-60(TB) leukemia, with HCC-2998 colon and in the experiment with CAKI-1 renal was over 100 µM each time.
Take `CCCCCCCCCC(=O)N[C@H]1CCc2cc(OC)c(OC)c(OC)c2-c2ccc(SC)c(=O)cc21`: the TGI is 0.0123 µM in the experiment with COLO 205 colon; 0.0618 µM with U251 CNS; 10.4 µM in the experiment with 786-0 renal; over 100 µM in the experiment with MOLT-4 leukemia; 0.0645 µM in the experiment on HT29 colon; 0.223 µM with HL-60(TB) leukemia. Besides, the TGI is 0.0563 µM in the experiment on HCC-2998 colon and over 100 µM in the experiment on CAKI-1 renal. In addition, the GI50 with CAKI-1 renal is 5.27 µM.
As to `O=C(O/N=C1/CCCC/C1=C\c1ccccc1)c1ccc(Cl)cc1`, the TGI in the experiment with COLO 205 colon, in the experiment with U251 CNS, with 786-0 renal, in the experiment with SK-MEL-2 melanoma, with HT29 colon and in the experiment with HL-60(TB) leukemia was over 100 µM in each case. The TGI was 36.2 µM with HCC-2998 colon and over 100 µM in the experiment with CAKI-1 renal.
For the compound `O=C1c2ccccc2C2(O)Oc3cccc(O)c3C12O` (configuration not stated), the TGI with COLO 205 colon, in the experiment with U251 CNS, in the experiment on 786-0 renal, in the experiment on MOLT-4 leukemia, in the experiment on SK-MEL-2 melanoma and in the experiment with HT29 colon was over 100 µM in each case. For the same compound, the TGI in the experiment on HL-60(TB) leukemia, with HCC-2998 colon and with CAKI-1 renal was over 100 µM each time.
In the case of `CC(C)c1ccc(O)c(=O)cc1`, the GI50 in the experiment with COLO 205 colon was 3.83 µM; in the experiment with U251 CNS it was 6.53 µM; in the experiment with 786-0 renal it was 14.7 µM; in the experiment with MOLT-4 leukemia it was 2.16 µM; with SK-MEL-2 melanoma, 34.5 µM; in the experiment on HT29 colon, 2.81 µM. Also, the GI50 in the experiment on HL-60(TB) leukemia was 2.51 µM; in the experiment with CAKI-1 renal it was 8.54 µM. Also, the TGI in the experiment on COLO 205 colon was 30.1 µM; in the experiment with U251 CNS it was over 80.9 µM; with 786-0 renal it was over 100 µM; in the experiment with MOLT-4 leukemia, > 44.8 µM and 6.22 µM; with SK-MEL-2 melanoma, 39 µM; with HT29 colon, over 100 µM. Besides, the TGI with HL-60(TB) leukemia is over 24.5 µM; in the experiment with HCC-2998 colon, over 100 µM; in the experiment on CAKI-1 renal, over 70.1 µM.
For the compound `COc1ccc(CCC2NCCc3cc(OC)c(OC)cc32)cc1` (configuration not stated), the TGI in the experiment on U251 CNS, in the experiment with 786-0 renal, with MOLT-4 leukemia, in the experiment on SK-MEL-2 melanoma, in the experiment on HT29 colon and in the experiment on HCC-2998 colon was over 100 µM throughout. This compound also returned a TGI in the experiment with CAKI-1 renal of over 100 µM.
For the compound `COc1ccc(S(=O)(=O)N/N=C(\C)CN2C(=O)c3ccccc3C2=O)cc1`, the TGI in the experiment on COLO 205 colon, in the experiment with U251 CNS, with 786-0 renal, in the experiment on MOLT-4 leukemia, in the experiment with SK-MEL-2 melanoma and with HT29 colon was over 100 µM each time. The TGI in the experiment on HL-60(TB) leukemia, in the experiment on HCC-2998 colon and in the experiment with CAKI-1 renal was over 100 µM throughout.
As for `O=C1CCC2CCOc3ccc(O)c1c32` (configuration not stated), the TGI with COLO 205 colon, in the experiment on U251 CNS, with 786-0 renal, with MOLT-4 leukemia, in the experiment with SK-MEL-2 melanoma and in the experiment with HT29 colon was over 100 µM in each case. The TGI with HL-60(TB) leukemia and with HCC-2998 colon was over 100 µM each time.
On to `Cc1cccc(N2C(=O)C(=O)C(c3nc4ccccc4s3)C(=O)C2=O)c1C`, for which the TGI in the experiment with COLO 205 colon, in the experiment with U251 CNS, with 786-0 renal, in the experiment with MOLT-4 leukemia, with SK-MEL-2 melanoma and with HT29 colon was over 100 µM each time. In addition, the TGI in the experiment with HCC-2998 colon and in the experiment on CAKI-1 renal was over 100 µM each time.
`COC1(OC)c2ccccc2C2(O)c3ccccc3C(=O)C12` (configuration not stated): the TGI is 27 µM with COLO 205 colon; over 100 µM in the experiment on U251 CNS; over 100 µM in the experiment on 786-0 renal; 80.9 µM in the experiment on MOLT-4 leukemia; over 100 µM with SK-MEL-2 melanoma; over 100 µM in the experiment on HT29 colon. Besides, the TGI in the experiment on HL-60(TB) leukemia is 46 µM; with HCC-2998 colon, over 100 µM.
With `C=CCC(C)(C(=O)NCCC)C(=O)c1ccccc1O` (configuration not stated), the TGI in the experiment with COLO 205 colon, in the experiment with U251 CNS, in the experiment with 786-0 renal, with MOLT-4 leukemia, in the experiment with SK-MEL-2 melanoma and with HL-60(TB) leukemia was over 100 µM throughout. The TGI in the experiment on HCC-2998 colon and with CAKI-1 renal was over 100 µM in each case.
For `CC1=N/C(=C\c2cccc3ccccc23)C(=O)O1`, the TGI in the experiment with COLO 205 colon, in the experiment with U251 CNS, with 786-0 renal, with MOLT-4 leukemia, in the experiment on SK-MEL-2 melanoma and in the experiment with HT29 colon was over 100 µM in each case. In addition, the TGI in the experiment with HL-60(TB) leukemia and with HCC-2998 colon was over 100 µM each time.
Take `C=CCNC(=S)OCCCCCCCCCC`: the TGI was found to be 30.8 µM in the experiment on U251 CNS; 32.6 µM in the experiment with 786-0 renal; 34.6 µM with MOLT-4 leukemia; 24.8 µM in the experiment with SK-MEL-2 melanoma; 32.5 µM with HT29 colon; 53.5 µM with HL-60(TB) leukemia. Further, the TGI is 31.8 µM in the experiment with HCC-2998 colon and 34 µM in the experiment on CAKI-1 renal.
